The values below come from patent publication US20130109682A1, “CYCLIC ETHER COMPOUNDS USEFUL AS KINASE INHIBITORS” (NOVARTIS AG, priority 2010, published 2013).

Common to all, as to type: biochemical
One test addresses GSK3β (Homo sapiens, UniProt P49841). The test can be described thus: GSK3β ATP depletion assay. The settings on record: ATP depletion assay; read-out: GSK3b IC50. The method in brief:
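Kinase activity is read as ATP consumption: luciferase luminescence reports the ATP remaining once roughly half of the 2 μM ATP is used. Reaction mix: 5 nM GSK3β, 10 μM b-CREB peptide, 50 mM Tris pH 7.5, 15 mM MgCl2, 1 mM DTT, 0.1% BSA, 2.5% DMSO. Enzyme and peptide are preincubated 15 min before ATP is added.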

The target in another test is PIM1 (Homo sapiens, UniProt P11309). Kind of test: Pim 1 AlphaScreen assay (high ATP). The settings on record: read-out: Pim1 IC50. As for the experimental part:
(§1) Pim1, Pim2, Pim3 AlphaScreen Assay Pim 1, Pim 2 & Pim 3 AlphaScreen assays using high ATP (11-125×ATP Km) were used to determine the biochemical activity of the inhibitors. The activity of Pim 1, Pim 2, & Pim 3 is measured using a homogeneous bead based system quantifying the amount of phosphorylated peptide substrate resulting from kinase-catalyzed phosphoryl transfer to a peptide substrate. Compounds to be tested are dissolved in 100% DMSO and directly distributed to a white 384-well plate at […] per well. To start the reaction, 5 μl of 100 nM Bad peptide (Biotin-AGAGRSRHSSYPAGT —OH) and ATP (concentrations described below) in assay buffer (50 mM Hepes, pH=7.5, 5 mM MgCl2, 0.05% BSA, 0.01% Tween-20, 1 mM DTT) is added to each well. This is followed by the addition of 5 μl/well of Pim 1, Pim 2 or Pim 3 kinase in assay buffer (concentrations described below). Final assay concentrations (described below) are in 2.5% DMSO. The reactions are performed for ˜2 hours, then stopped by the addition of 10 μl of 0.75 μg/ml anti-phospho Ser/Thr antibody (Cell Signaling), 10 μg/ml Protein A AlphaScreen beads (Perkin Elmer), and 10 μg/ml streptavidin coated AlphaScreen beads in stop/detection buffer (50 mM EDTA, 95 mM Tris, pH=7.5, 0.01% Tween-20). The stopped reactions are incubated overnight in the dark. The phosphorylated peptide is detected via an […] initiated chemiluminescence/fluorescence cascade using the Envision plate reader (Perkin Elmer).
(§2) IC50, the half maximal inhibitory concentration, represents the concentration of a test compound that is required for 50% inhibition of its target in vitro under the described assay conditions.
On the technique in general: In Alpha technology, singlet oxygen from a donor bead excites a nearby acceptor bead.

A further test concerns the target PIM2 (Homo sapiens, UniProt Q9P1W9). The test can be described thus: Pim 2 AlphaScreen assay (high ATP). The note with it: read-out: Pim2 IC50. The method in brief: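 IC50 values rest on detection of phosphorylated Bad peptide: after a ~2 h kinase reaction, an EDTA stop buffer containing anti-phospho Ser/Thr antibody, Protein A and streptavidin AlphaScreen beads was added and read after overnight dark incubation. ATP was high (11-125× Km), with 2.5% DMSO in pH 7.5 Hepes buffer containing MgCl2, BSA, Tween-20 and DTT.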

The next test deals with PIM3 (Homo sapiens, UniProt Q86V86). Kind of test: Pim 3 AlphaScreen assay (high ATP). The settings on record: read-out: Pim3 IC50. As for the experimental part:
as §1, §2

Some results are limits rather than exact numbers.

For orientation: IC50 means the concentration needed to halve the response being measured.

Sequence of GSK3β (P49841 whole entry, species assumed): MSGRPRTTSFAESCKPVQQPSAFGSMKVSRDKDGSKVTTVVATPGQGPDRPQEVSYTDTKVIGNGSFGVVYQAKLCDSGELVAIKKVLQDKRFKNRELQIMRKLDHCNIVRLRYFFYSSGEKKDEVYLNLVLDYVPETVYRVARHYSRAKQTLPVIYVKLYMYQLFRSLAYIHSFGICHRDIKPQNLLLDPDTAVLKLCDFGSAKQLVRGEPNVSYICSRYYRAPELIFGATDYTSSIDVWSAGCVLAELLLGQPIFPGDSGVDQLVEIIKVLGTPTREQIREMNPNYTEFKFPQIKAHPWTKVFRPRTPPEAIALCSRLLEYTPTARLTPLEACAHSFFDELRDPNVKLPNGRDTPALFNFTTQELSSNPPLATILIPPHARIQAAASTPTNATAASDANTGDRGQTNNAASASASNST
Sequence of PIM1 (P11309 whole entry): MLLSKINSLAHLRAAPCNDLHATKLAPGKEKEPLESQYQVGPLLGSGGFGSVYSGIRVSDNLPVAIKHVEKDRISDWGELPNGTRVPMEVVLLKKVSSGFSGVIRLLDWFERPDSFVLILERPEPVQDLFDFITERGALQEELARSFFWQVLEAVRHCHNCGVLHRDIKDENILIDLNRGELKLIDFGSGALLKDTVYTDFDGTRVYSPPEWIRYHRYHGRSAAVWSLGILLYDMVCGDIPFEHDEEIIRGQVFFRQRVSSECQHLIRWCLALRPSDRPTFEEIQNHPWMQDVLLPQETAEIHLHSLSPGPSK
Sequence of PIM2 (Q9P1W9 whole entry): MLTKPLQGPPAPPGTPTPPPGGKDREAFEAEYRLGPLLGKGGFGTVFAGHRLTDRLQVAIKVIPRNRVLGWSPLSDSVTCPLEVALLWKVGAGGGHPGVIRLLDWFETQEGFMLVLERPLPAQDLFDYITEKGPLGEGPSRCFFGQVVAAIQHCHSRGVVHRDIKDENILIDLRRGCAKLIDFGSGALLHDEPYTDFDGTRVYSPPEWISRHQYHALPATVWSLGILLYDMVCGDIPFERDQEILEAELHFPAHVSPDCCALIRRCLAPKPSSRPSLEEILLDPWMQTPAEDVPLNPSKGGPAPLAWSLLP

Turning to `COc1ccc(F)c(-c2nc(C(=O)Nc3cnccc3[C@H]3C[C@@H](N)[C@](C)(O)[C@@H](C)O3)ccc2F)c1F` [Example 244, N-(4-((2R,4R,5S,6R)-4-amino-5-hydroxy-5,6-dimethyltetrahydro-2H-pyran-2-yl)pyridin-3-yl)-6-(2,6-difluoro-3-methoxyphenyl)-5-fluoropicolinamide], the 50% inhibitory concentration (IC50) at GSK3β was 809 nM; on PIM1 it was 0.08 nM; on PIM2 it was 12.2 nM; on PIM3, 1.2 nM.
Regarding `Cc1cc(F)c(-c2nc(C(=O)Nc3cnccc3[C@H]3C[C@@H](N)[C@](C)(O)[C@@H](C)O3)ccc2F)c(F)c1` [Example 245, N-(4-((2R,4R,5S,6R)-4-amino-5-hydroxy-5,6-dimethyltetrahydro-2H-pyran-2-yl)pyridin-3-yl)-6-(2,6-difluoro-4-methylphenyl)-5-fluoropicolinamide], the IC50 on GSK3β came to 768 nM; on PIM1 it was 0.05 nM; on PIM2, 6.9 nM; at PIM3 it was 0.8 nM.
As for `C[C@]1(O)[C@H](O)C[C@H](c2ccncc2NC(=O)c2nc(-c3c(F)cccc3F)ncc2N)O[C@@H]1C1CC1` [Example 246, 5-amino-N-(4-((2R,4R,5S,6R)-6-cyclopropyl-4,5-dihydroxy-5-methyltetrahydro-2H-pyran-2-yl)pyridin-3-yl)-2-(2,6-difluorophenyl)pyrimidine-4-carboxamide], the IC50 was 983 nM at GSK3β, 71.2 nM on PIM1, 818 nM on PIM2 and 970 nM at PIM3.
On the same counts, the results for `C[C@]1(O)[C@H](O)C[C@H](c2ccncc2NC(=O)c2ccc(F)c(-c3c(F)cccc3F)n2)O[C@@H]1C1CC1` [Example 247, N-(4-((2R,4R,5S,6R)-6-cyclopropyl-4,5-dihydroxy-5-methyltetrahydro-2H-pyran-2-yl)pyridin-3-yl)-6-(2,6-difluorophenyl)-5-fluoropicolinamide] are 1200 nM, 4.01 nM, 185 nM and 103 nM.
Consider `C[C@@]1(O)[C@@H](O)C[C@@H](c2ccncc2NC(=O)c2ccc(F)c(-c3c(F)cccc3F)n2)O[C@H]1C1CC1` [Example 248, N-(4-((2S,4S,5R,6S)-6-cyclopropyl-4,5-dihydroxy-5-methyltetrahydro-2H-pyran-2-yl)pyridin-3-yl)-6-(2,6-difluorophenyl)-5-fluoropicolinamide], for which the IC50 at GSK3β was 1970 nM; at PIM1, 92 nM; on PIM2 it was 9280 nM; at PIM3, 2270 nM.
On to `C[C@@]1(O)[C@@H](O)C[C@@H](c2ccncc2NC(=O)c2nc(-c3c(F)cccc3F)ncc2N)O[C@H]1C1CC1` [Example 249, 5-amino-N-(4-((2S,4S,5R,6S)-6-cyclopropyl-4,5-dihydroxy-5-methyltetrahydro-2H-pyran-2-yl)pyridin-3-yl)-2-(2,6-difluorophenyl)pyrimidine-4-carboxamide], for which the IC50 at GSK3β is 6020 nM; on PIM1, 989 nM; on PIM2, above 25000 nM; at PIM3 it was 20900 nM.
As to `O=C(Nc1cnccc1[C@@H]1C[C@H](O)[C@@H](O)C2(CC2)O1)c1ccc(F)c(-c2c(F)cccc2F)n1` [Example 250, 6-(2,6-difluorophenyl)-N-(4-((5S,7S,8R)-7,8-dihydroxy-4-oxaspiro[2.5]octan-5-yl)pyridin-3-yl)-5-fluoropicolinamide], the IC50 on GSK3β came out at 1040 nM; at PIM1, 20.1 nM; on PIM2, 3590 nM; on PIM3, 499 nM.
On the same counts, the results for `Nc1cnc(-c2c(F)cccc2F)nc1C(=O)Nc1cnccc1[C@@H]1C[C@H](O)[C@@H](O)C2(CC2)O1` [Example 251, 5-amino-2-(2,6-difluorophenyl)-N-(4-((5S,7S,8R)-7,8-dihydroxy-4-oxaspiro[2.5]octan-5-yl)pyridin-3-yl)pyrimidine-4-carboxamide] are 1110 nM, 90.7 nM, 9100 nM and 1320 nM.
On the same counts, the results for `Nc1cnc(-c2c(F)cccc2F)nc1C(=O)Nc1cnccc1[C@H]1C[C@@H](O)[C@H](O)C2(CC2)O1` [Example 252, 5-amino-2-(2,6-difluorophenyl)-N-(4-((5R,7R,8S)-7,8-dihydroxy-4-oxaspiro[2.5]octan-5-yl)pyridin-3-yl)pyrimidine-4-carboxamide] are 572 nM, 20.3 nM, 848 nM and 252 nM.
On the same counts, the results for `O=C(Nc1cnccc1[C@H]1C[C@@H](O)[C@H](O)C2(CC2)O1)c1ccc(F)c(-c2c(F)cccc2F)n1` [Example 253, 6-(2,6-difluorophenyl)-N-(4-((5R,7R,8S)-7,8-dihydroxy-4-oxaspiro[2.5]octan-5-yl)pyridin-3-yl)-5-fluoropicolinamide] are 273 nM, 0.99 nM, 79.5 nM and 12.6 nM.
For `CC(C)(C)[C@@H]1O[C@H](c2ccncc2NC(=O)c2ccc(F)c(-c3c(F)cccc3F)n2)C[C@H](N)[C@H]1O` [Example 254, N-(4-((2S,4S,5R,6S)-4-amino-6-(tert-butyl)-5-hydroxytetrahydro-2H-pyran-2-yl)pyridin-3-yl)-6-(2,6-difluorophenyl)-5-fluoropicolinamide], the IC50 on GSK3β is 4690 nM; on PIM1, 0.78 nM; at PIM2 it was 47.2 nM; on PIM3, 16 nM.
On the same counts, the results for `CC(C)(C)[C@H]1O[C@@H](c2ccncc2NC(=O)c2ccc(F)c(-c3c(F)cccc3F)n2)C[C@@H](N)[C@@H]1O` [Example 255, N-(4-((2R,4R,5S,6R)-4-amino-6-(tert-butyl)-5-hydroxytetrahydro-2H-pyran-2-yl)pyridin-3-yl)-6-(2,6-difluorophenyl)-5-fluoropicolinamide] are 2190 nM, 0.03 nM, 1.7 nM and 0.4 nM.
On the same counts, the results for `C[C@]1(O)[C@H](N)C[C@H](c2ccncc2NC(=O)c2ccc(F)c(-c3c(F)cccc3F)n2)O[C@@H]1C1CC1` [Example 256, N-(4-((2R,4R,5S,6R)-4-amino-6-cyclopropyl-5-hydroxy-5-methyltetrahydro-2H-pyran-2-yl)pyridin-3-yl)-6-(2,6-difluorophenyl)-5-fluoropicolinamide] are 4620 nM, 0.17 nM, 6.1 nM and 1.7 nM.
On the same counts, the results for `C[C@@]1(O)[C@@H](N)C[C@@H](c2ccncc2NC(=O)c2ccc(F)c(-c3c(F)cccc3F)n2)O[C@H]1C1CC1` [Example 257, N-(4-((2S,4S,5R,6S)-4-amino-6-cyclopropyl-5-hydroxy-5-methyltetrahydro-2H-pyran-2-yl)pyridin-3-yl)-6-(2,6-difluorophenyl)-5-fluoropicolinamide] are 20000 nM, 1.88 nM, 173 nM and 35.9 nM.
In the case of `CC[C@]1(O)[C@H](N)C[C@H](c2ccncc2NC(=O)c2ccc(F)c(-c3c(F)cc(OC)cc3F)n2)O[C@@H]1C` [Example 258, N-(4-((2R,4R,5S,6R)-4-amino-5-ethyl-5-hydroxy-6-methyltetrahydro-2H-pyran-2-yl)pyridin-3-yl)-6-(2,6-difluoro-4-methoxyphenyl)-5-fluoropicolinamide], the IC50 was determined as 183 nM at GSK3β, 0.04 nM on PIM1, 6.2 nM on PIM2 and 0.5 nM at PIM3.
Regarding `CC[C@]1(O)[C@H](N)C[C@H](c2ccncc2NC(=O)c2ccc(F)c(-c3c(F)cc(C)cc3F)n2)O[C@@H]1C` [Example 259, N-(4-((2R,4R,5S,6R)-4-amino-5-ethyl-5-hydroxy-6-methyltetrahydro-2H-pyran-2-yl)pyridin-3-yl)-6-(2,6-difluoro-4-methylphenyl)-5-fluoropicolinamide], the IC50 is 218 nM at GSK3β, 0.03 nM on PIM1, 4.8 nM on PIM2 and 0.4 nM on PIM3.
